According to ChEMBL document CHEMBL3785046, “Synthesis, in vitro and in vivo evaluation of novel substituted N-(4-(2-(4-benzylpiperazin-1-yl)ethoxy)phenyl)-N-methyl-quinazolin-4-amines as potent antitumor agents” (Bioorg Med Chem Lett, 2016):
Blank lines part the entries; values can stand above or below the molecule they belong to. The source made the active and inactive calls. No cut-off for these calls is given here.

Key:
HepG2 [1] = test: Antiproliferative activity against human HepG2 cells after 24 hrs by MTT assay; assay type: functional, cell-based; conditions: HepG2, 24 h
A549 = test: Antiproliferative activity against human A549 cells after 24 hrs by MTT assay; assay type: functional, cell-based; conditions: A549, 24 h
MCF7 = test: Antiproliferative activity against human MCF7 cells after 24 hrs by MTT assay; assay type: functional, cell-based; conditions: MCF7, 24 h
[2] = Antiproliferative activity against human SW620 cells after 24 hrs by MTT assay; assay type: functional, cell-based; conditions: SW-620, 24 h
HepG2 [3] = test: Cell cycle arrest in human HepG2 cells assessed as accumulation at S phase at 200 nM after 24 hrs by propidium iodide staining based flow cytometry (reference value: 39%); assay type: functional
HepG2 [4] = test: Cell cycle arrest in human HepG2 cells assessed as accumulation at G2/M phase at 200 nM after 24 hrs by propidium iodide staining based flow cytometry (reference value: 19%); assay type: functional
HepG2 [5] = test: Cell cycle arrest in human HepG2 cells assessed as accumulation at G1 phase at 500 nM after 24 hrs by propidium iodide staining based flow cytometry (reference value: 42%); assay type: functional
HepG2 [6] = test: Cell cycle arrest in human HepG2 cells assessed as accumulation at S phase at 500 nM after 24 hrs by propidium iodide staining based flow cytometry (reference value: 39%); assay type: functional
HepG2 [7] = test: Cell cycle arrest in human HepG2 cells assessed as accumulation at G2/M phase at 500 nM after 24 hrs by propidium iodide staining based flow cytometry (reference value: 19%); assay type: functional
HepG2 [8] = test: Cell cycle arrest in human HepG2 cells assessed as accumulation at G2/M phase after 24 hrs by propidium iodide staining based flow cytometry (reference value: 19%); assay type: functional
HepG2 [9] = test: Upregulation of cyclin B1 in human HepG2 cells at 10 to 100 nM after 24 hrs by Western blot analysis; assay type: functional, cell-based
HepG2 [10] = test: Upregulation of phosphorylated histone H3 levels in human HepG2 cells at 10 to 100 nM after 24 hrs by Western blot analysis; assay type: functional, cell-based
HepG2 [11] = test: Downregulation of Cdc25C in human HepG2 cells at 10 to 100 nM after 24 hrs by Western blot analysis; assay type: functional, cell-based
HepG2 [12] = test: Downregulation of Cdk1 in human HepG2 cells at 10 to 100 nM after 24 hrs by Western blot analysis; assay type: functional, cell-based
HepG2 [13] = test: Induction of apoptosis in human HepG2 cells assessed as upregulation of cleaved PARP levels at 0.5 uM after 48 hrs by Western blot analysis; assay type: functional, cell-based
HepG2 [14] = test: Induction of apoptosis in human HepG2 cells assessed as upregulation of cleaved caspase-3 levels at 0.5 uM after 48 hrs by Western blot analysis; assay type: functional, cell-based
HepG2 [15] = test: Induction of apoptosis in human HepG2 cells assessed as upregulation of cleaved PARP levels after 48 hrs by Western blot analysis; assay type: functional, cell-based
HepG2 [16] = test: Induction of apoptosis in human HepG2 cells assessed as upregulation of cleaved caspase-3 levels after 48 hrs by Western blot analysis; assay type: functional, cell-based
HepG2 [17] = test: Binding affinity to alpha tubulin in human HepG2 cells assessed as disruption of microtubule at 1 uM after 24 hrs by immunofluorescence staining based microscopy; assay type: cell-based
HepG2 [18] = test: Antitumor activity against human HepG2 cells xenografted with nude mouse assessed as tumor volume at 10 mg/kg, iv administered every 2 days for 31 days (reference value: 87.39 +/- 3.529 mm3); assay type: functional
HepG2 [19] = test: Antitumor activity against human HepG2 cells xenografted with nude mouse assessed as tumor weight at 10 mg/kg, iv administered every 2 days for 31 days; assay type: functional
HepG2 [20] = test: Antitumor activity against human HepG2 cells xenografted with nude mouse assessed as tumor mass change at 10 mg/kg, iv administered every 2 days for 31 days; assay type: functional
Mus musculus [21] = test: Toxicity in nude mouse xenografted with human HepG2 cells assessed as weight loss at 10 mg/kg, iv administered every 2 days for 31 days; assay type: organism-based; conditions: in vivo
Mus musculus [22] = test: Toxicity in nude mouse xenografted with human HepG2 cells assessed as feeding at 10 mg/kg, iv administered every 2 days for 31 days; assay type: organism-based; conditions: in vivo
Mus musculus [23] = test: Toxicity in nude mouse xenografted with human HepG2 cells assessed as abnormal behavior at 10 mg/kg, iv administered every 2 days for 31 days; assay type: organism-based; conditions: in vivo
HepG2 [24] = test: Cell cycle arrest in human HepG2 cells assessed as accumulation at G1 phase at 100 nM after 24 hrs by propidium iodide staining based flow cytometry (reference value: 42%); assay type: functional
HepG2 [25] = test: Cell cycle arrest in human HepG2 cells assessed as accumulation at S phase at 100 nM after 24 hrs by propidium iodide staining based flow cytometry (reference value: 39%); assay type: functional
HepG2 [26] = test: Cell cycle arrest in human HepG2 cells assessed as accumulation at G2/M phase at 100 nM after 24 hrs by propidium iodide staining based flow cytometry (reference value: 19%); assay type: functional
HepG2 [27] = test: Cell cycle arrest in human HepG2 cells assessed as accumulation at G1 phase at 200 nM after 24 hrs by propidium iodide staining based flow cytometry (reference value: 42%); assay type: functional
HepG2 [28] = test: Antitumor activity against human HepG2 cells xenografted with nude mouse assessed as tumor volume at 5 mg/kg, iv administered every 2 days for 31 days (reference value: 103.6 +/- 1.77 mm3); assay type: functional
HepG2 [29] = test: Antitumor activity against human HepG2 cells xenografted with nude mouse assessed as tumor weight at 5 mg/kg, iv administered every 2 days for 31 days; assay type: functional

Structure (SMILES): CN(c1ccc(OCCN2CCN(Cc3c(F)cccc3F)CC2)cc1)c1nc(Cl)nc2ccccc12
IC50 (HepG2 [1]): 1.45 µM
IC50 (A549): 6.35 µM
IC50 (MCF7): 1.98 µM
IC50 [2]: 3.21 µM

Structure (SMILES): Cc1nc(N(C)c2ccc(OCCN3CCN(Cc4ccc(F)c(F)c4)CC3)cc2)c2ccccc2n1
IC50 (HepG2 [1]): 6.58 µM
IC50 (A549): > 10 µM
IC50 (MCF7): 6.12 µM
IC50 [2]: 3.27 µM

Structure (SMILES): CN(c1ccc(OCCN2CCN(Cc3ccc(C(C)(C)C)cc3)CC2)cc1)c1nc(Cl)nc2ccccc12
IC50 (HepG2 [1]): > 10 µM
IC50 (A549): > 10 µM
IC50 (MCF7): > 10 µM
IC50 [2]: > 10 µM

Structure (SMILES): COc1cccc2c1C(=O)c1c(O)c3c(c(O)c1C2=O)C[C@@](O)(C(=O)CO)C[C@@H]3O[C@H]1C[C@H](N)[C@H](O)[C@H](C)O1.Cl [DOXORUBICIN HYDROCHLORIDE]
Activity (HepG2 [28]): 238.7 mm3
Activity (HepG2 [29]): 0.188 g

Structure (SMILES): Cc1nc(N(C)c2ccc(OCCN3CCN(Cc4ccc(C(C)(C)C)cc4)CC3)cc2)c2ccccc2n1
IC50 (HepG2 [1]): > 10 µM
IC50 (A549): > 10 µM
IC50 (MCF7): > 10 µM
IC50 [2]: > 10 µM

Further lines, with some results ahead:

IC50 (HepG2 [1]): 0.65 µM
IC50 (A549): 0.371 µM
IC50 (MCF7): 1.23 µM
Structure (SMILES): CN(c1ccc(OCCN2CCN(Cc3ccccc3Cl)CC2)cc1)c1nc(Cl)nc2ccccc12
IC50 [2]: 0.98 µM

IC50 (HepG2 [1]): 0.555 µM
IC50 (A549): 0.872 µM
IC50 (MCF7): 2.32 µM
Structure (SMILES): Cc1nc(N(C)c2ccc(OCCN3CCN(Cc4ccccc4Cl)CC3)cc2)c2ccccc2n1
IC50 [2]: 2.92 µM

IC50 (HepG2 [1]): 1.31 µM
IC50 (A549): 1.56 µM
IC50 (MCF7): 2.34 µM
Structure (SMILES): CN(c1ccc(OCCN2CCN(Cc3ccc(F)c(F)c3)CC2)cc1)c1nc(Cl)nc2ccccc12
IC50 [2]: 0.892 µM

IC50 (HepG2 [1]): 0.441 µM
IC50 (A549): > 10 µM
IC50 (MCF7): 2.16 µM
Structure (SMILES): Cc1nc(N(C)c2ccc(OCCN3CCN(Cc4ccccc4Br)CC3)cc2)c2ccccc2n1
IC50 [2]: 1.23 µM

IC50 (HepG2 [1]): 0.089 µM
IC50 (A549): 0.281 µM
IC50 (MCF7): 0.69 µM
Structure (SMILES): Cc1nc(N(C)c2ccc(OCCN3CCN(Cc4ccccc4F)CC3)cc2)c2ccccc2n1
IC50 [2]: 0.716 µM

IC50 (HepG2 [1]): 0.029 µM
IC50 (A549): 0.147 µM
IC50 (MCF7): 0.099 µM
Structure (SMILES): CN(c1ccc(OCCN2CCN(Cc3ccccc3F)CC2)cc1)c1nc(Cl)nc2ccccc12
Activity (HepG2 [3]): 26%
Activity (HepG2 [4]): 44%
Activity (HepG2 [5]): 10%
Activity (HepG2 [6]): 23%
Activity (HepG2 [7]): 67%
Activity (HepG2 [8]): Dose-dependent effect
Activity (HepG2 [9]): Active
Activity (HepG2 [10]): Active
Activity (HepG2 [11]): Active
Activity (HepG2 [12]): Active
Activity (HepG2 [13]): Active
Activity (HepG2 [14]): Active
Activity (HepG2 [15]): Dose-dependent effect
Activity (HepG2 [16]): Dose-dependent effect
Activity (HepG2 [17]): Active
Activity (HepG2 [18]): 259.78 mm3
Activity (HepG2 [19]): 0.217 g
Activity (HepG2 [20]): 78.69%
Activity (Mus musculus [21]): Non-toxic
Activity (Mus musculus [22]): Non-toxic
Activity (Mus musculus [23]): Non-toxic
IC50 [2]: 0.052 µM
Activity (HepG2 [24]): 38%
Activity (HepG2 [25]): 37%
Activity (HepG2 [26]): 25%
Activity (HepG2 [27]): 30%

IC50 (HepG2 [1]): 0.89 µM
IC50 (A549): 5.74 µM
IC50 (MCF7): 1.01 µM
Structure (SMILES): Cc1nc(N(C)c2ccc(OCCN3CCN(Cc4ccccc4C#N)CC3)cc2)c2ccccc2n1
IC50 [2]: 0.883 µM
